Marks after values point to notes of the source that are not given here.

Data on three compounds can be found in patent US20240130988A1, “Use of stilbene compounds in the preparation of anti-tumor drugs” (Guangzhou AnHao Pharmaceutical Technology CO., LTD., priority 2022, published 2024).

The subject of experiment [1] is LLC (mouse lung cancer cells). Briefly: Enrichment of CD8+ cytotoxic T lymphocytes in tumor tissue, Lewis non-small cell lung cancer model of mice. It counts as in vivo. Conditions: 400 mg/kg ip once a day for 10 days, flow cytometry. How it is done: LLC (mouse lung cancer cells) were a mouse Lewis lung cancer cells.
The modeling method for LLC cell lung cancer in mice was as follows:
LLC cells were cultured in the general medium containing 10% fetal bovine serum and 100 μg/mL of double antibody (penicillin±streptomycin), and then cultivated in a 37° C., 5% CO2 cell incubator for routine incubation. LLC cells, that had grown to logarithmic phase, were digested with 0.25% trypsin (containing EDTA) to form a cell suspension, which was centrifuged at 1000 rpm/min for 3 min. The supernatant was discarded, and cell precipitates were collected, that were resuspended in culture medium without serum and double antibody. The cell suspension was further centrifuged to adjust the volume under the same conditions with the aid of cell counting, so as to prepare a cell suspension at a concentration of […] was injected into the right abdomen of each mouse, to complete the inoculation of tumor cells. The tumor was allowed to grew about 10 days, and the volume reached around 100 mm^3, before the mice were treated with test compounds.
Drug preparation: compounds 1-13 of the present invention were respective prepared into an injection with injection water.
Experimental methods: The model mice with LLC cell lung cancer were treated by intraperitoneal administration of 400 mg/kg injection containing the compound of the present invention. The model mice were divided into a negative control group (model mice only receiving equal volume of injection water by intraperitoneal administration) and treatment groups (model mice receiving the injection prepared with the compound of the present invention by intraperitoneal administration). The intraperitoneal injection regimen was carried out by injecting once a day at the pre-determined time. Before administration, the mice were weighed, and then treated with the injection at a dosage of 10 mL/kg, After successive administration for 10 days, that is, on the 10th day after receiving treatment, the mice were sacrificed, and the subcutaneous tumors were stripped to detect the ratio of cytotoxic T lymphocyte antigen CD8^+ in tumor tissues of the negative group and the treatment group by flow cytometry.
CD8^+ tumor-infiltrating lymphocytes in tumor tissues were detected by flow cytometry. The specific steps were as follows:
The mice were sacrificed, and then the abdominal epidermis of the mice was cut open using ophthalmic scissors, to fully expose the subcutaneous tumors. The subcutaneous tumor tissues on the right side of the mouse's abdomen were gradually peeled off with tweezers and ophthalmic scissors. After rinsing with PBS, the stripped tumor tissues were cut into about 1 mm using ophthalmic scissors, and then placed in 3 mL of PBS buffer containing 100 μg/mL of hyaluronidase. A centrifuge tube containing a dispersed liquid was placed in a water bath and kept at 37° C. for 20 min. A pipette was used to blow and shake the digestive tumor tissues every 5 minutes to fully digest. The dispersed liquid containing undigested tumor tissues was filtered through a 70 μm stainless steel cell screen, and the remaining undigested tumor tissues were ground using a push rod of 20 mL syringe on 70 μm cell screen and rinsed 5 times with 1 mL of PBS while grinding. The cell suspension passing the cell screen was transferred to a 15 mL centrifuge tube, and centrifuged at 4000 rpm for 3 min. Then, cell precipitates were collected, to which was added 2 mL of red cell lysis buffer, and rested for 10 min, followed by centrifuging at 4000 rpm for 3 min. After washing with PBS, the cells were resuspended by adding 2-3 mL of PBS.
An appropriate amount of cell suspension was used as the sample for flow cytometry, and after counting, the cell suspension was adjusted to have a concentration of 5×10^6/mL. 100 μL of cell suspension was added to a test tube with a pipettor. […]
A general note: Flow cytometry measures light scatter and fluorescence of single cells or particles in a stream.

The test system of experiment [2] is LLC (mouse lung cancer cells). The experiment is described as above. It is filed as in vivo. The settings on record: 400 mg/kg ip once a day for 10 days, CD8+ immunohistochemistry.
Experiment [3] relates to human liver cancer QGY7703. Briefly: Human liver cancer QGY7703 transplanted tumor in nude mice. It counts as in vivo, BALB/C nude mice. Conditions: QGY7703, 100 mg/kg iv × 14; for inhibition in vivo at 100 mg/kg: Mus musculus, QGY-7703, read-out: Tumor inhibitory rate %. Further details: key to RTV (d 18): RTV = Vt/Vo, tumor volume relative to volume at grouping (d1). The method, then: A human liver cancer QGY7703 model transplanted into nude mice was used in the experiment to investigate the anti-tumor effect of test compounds. The mice were intravenously injected at a dosage of 100 mg/kg for 14 days, and the tumor inhibition rate against human liver cancer QGY7703 was measured.
(§1) Preparation: The compound was prepared as the injection at the desired concentration with sterile normal saline, prior to administration.
Animal strain: BALB/C nude mice (SPF grade), weight: 19-21 g, gender: male. Number of animals in each treatment group: 8; number of animals in the control group: >12.
The tumor blocks of human liver cancer QGY7703 with good growth were cut into uniform small pieces of 3 mm under sterile conditions, and then subcutaneously inoculated into the right armpit of each mouse with a cannula. These mice were divided into 9 groups, 8 mice for each treatment group, while more than 12 mice were included in the control group.
(§2) 14 days after inoculation, the average volume of the tumor block was about 100 mm^3. The animals were regrouped based on the size of the tumor, and the animals with tumors that were too large and too small were sifted out. For each group, the average volume of tumors was basically the same, and then the mice were initially treated with test compounds. The mice in the treatment groups were intravenously injected once a day for 14 days, at a dosage of 0.1 mL/20 g body weight; the mice in the control group were given the same volume of sterile normal saline. From the 14th day of inoculation, the long diameter a (mm) of the tumor, together with the perpendicular short diameter b (mm), was measured using a digital electronic caliper, twice a week. The calculation formula of tumor volume is: TV=ab^2/2, and the formula for calculating the relative tumor volume is RTV=Vt/Vo, wherein Vo denotes the tumor volume measured when the mice were divided into groups (i.e. d1), and Vt is the tumor volume from each measurement.
(§3) The result determination is based on the following formula: […]

Experiment [4] has as its system nonfusion human umbilical vein endothelial cells (HUVEC). Kind of experiment: TMT quantitative proteomics on nonfusion HUVEC. The settings on record: 10 μM; for Differentially expressed proteins: more than 1.5 times or less than 0.67 times vs control; for Down-regulation / Up-regulation: number of proteins. It counts as cell-based. The method, then: Nonfusion human umbilical vein endothelial cells (HUVEC) were used to simulate new tumor blood vessels, while confluent HUVECs were used to simulate normal blood vessels, to construct experimental models. Two different HUVECs were treated with the compound at the same dosage of 10 μM, to simulate the fusion cell state, and proteome samples were prepared. After preparation of peptide segments, the segments were labelled with TMT, and a quantitative proteomics analysis was carried out. The efficiency of TMT labeling was higher than 99.4%, and a total of 28372 peptide segments from 4934 proteins were characterized using a strict 1% FDR limit. Among them, 4909 quantifiable proteins were identified, indicating reliable quality. The nonfusion treatment groups and the fusion treatment groups were compared with their respective control groups, and the control group was used as a reference, with a significant difference of more than 1.5 times or less than 0.67 times as the protein score standard.
The total cell proteins of the samples in nonfusion cell groups and fusion cell groups were extracted separately, and 2 μg of protein samples were subjected to quality analysis, The quantitative proteomics experiments were carried out, and the protein concentration assay was performed by quantitative grayscale measurement.
Data analysis: The human protein database (Scientific name: Homo sapiens, 9606) was downloaded from UniProt, MaxQuant (v 1.5.5.1) search engine was used to search for the database. A total of 4934 proteins (4909 quantitative proteins) and 28372 peptide segments were identified by TMT quantitative proteomics experiments, with a labeling efficiency of more than 99%, and the complete digestion occupied 86.3%.

Experiment [5] concerns human lung cancer A549. Kind of experiment: Human lung cancer A549 transplanted tumors in nude mice. It is filed as in vivo, BALB/C nude mice. Conditions: A549, 400 mg/kg ig × 14. The method, then:
In this experiment, a human lung cancer A549 model transplanted into nude mice was selected to study the anti-tumor effect of test compounds. The mice were treated at a dosage of 400 mg/kg by gavage for 14 days, and the tumor inhibition rate against human lung cancer A549 was measured.
Preparation: The compound was prepared as the solution at the desired concentration with distilled water, prior to administration.
Animal strain: BALB/C nude mice (SPF grade), weight: 19-21 g, gender: male. Number of animals in each treatment group: 8; Number of animals in the control group: >12.
Lung cancer A549 tumor blocks with good growth were chosen and cut into uniform small pieces of 3 mm under sterile conditions, and then subcutaneously inoculated into the right armpit of each mouse with a cannula. These mice were divided into 9 groups, 8 mice for each treatment group, while more than 12 mice were included in the control group.
14 days after inoculation, the average volume of the tumor mass was about 100 mm^3. The animals were regrouped based on the size of the tumor, and the mice with tumors that were too large and too small were eliminated. For each group, the average volume of tumors was basically the same, and then the mice were treated with test compounds. The mice in the treatment groups were administered once a day by gavage for 14 successive days, at a dosage of 0.5 mL/20 g body weight; the mice in the control group were given the same volume of physiological saline. From the 14th day of inoculation, the long diameter a (mm) of the tumor, together with the perpendicular short diameter b (mm), was measured using a digital electronic caliper, twice a week. The calculation formula of tumor volume is: TV=ab^2/2, and the formula for calculating the relative tumor volume is RTV=Vt/Vo, wherein Vo denotes the tumor volume measured when the mice were divided into groups (i.e. d1), and Vt is the tumor volume from each measurement.
as §3

The subject of experiment [6] is human gastric cancer MGC803. Briefly: Human gastric cancer MGC803 transplanted tumor in nude mice. It counts as in vivo, BALB/C nude mice. Conditions: MGC803, 200 mg/kg ip × 14. The method, then:
A human gastric cancer MGC803 model transplanted into nude mice was used in the experiment to investigate the anti-tumor effect of test compounds.
as §1
Animal strain: BALB/C nude mice (SPF grade), weight: 19-21 g, gender: male.
Number of animals in each treatment group: 8; number of animals in the control group: >12.
The tumor blocks of human gastric cancer MGC803 with good growth were cut into uniform small pieces of 3 mm under sterile conditions, and then subcutaneously inoculated into the right armpit of each mouse with a cannula. These mice were divided into 9 groups, 8 mice for each treatment group, while more than 12 mice were included in the control group.
as §2, with “mice” for “mice in the treatment groups”, “intraperitoneally” for “intravenously”, “0.2” for “0.1”, “weight.” for “weight; the mice in the control group were given the same volume of sterile normal saline.”, “groups(i.e.” for “groups (i.e.”
as §3

In the case of `COc1ccc(/C=C(/C(=O)O)c2cc(OC)c(OC)c(OC)c2)c(O)c1O` [Compound 2, (E)-3-(2,3-dihydroxy-4-methoxyphenyl)-2-(3,4,5-trimethoxylphenyl)acrylic acid], in experiment [1] (400 mg/kg), the “The ratio of CD8^+ in total immune cells of tumor tissues (%)” value (“The ratio of CD8^+ … (%)” below) is on record as 0.0823 ± 0.0112%. Also, the “The ratio of distribution area in tumor tissues (%)” value (from here on “The ratio … in tumor tissues (%)”) in experiment [2] (400 mg/kg) was 7.147 ± 0.7528%. Moreover, in experiment [3], the inhibition in vivo at 100 mg/kg was found to be 64.9% and the “RTV (d 18)” value came out at 4.51 ± 0.58. In experiment [4], this compound had a Differentially expressed proteins of 298, a Down-regulation of 288 and an Up-regulation of 10.

`COc1cc(/C(=C\c2cc(O)c(OC)c(Cl)c2)C(=O)O)cc(OC)c1OC` [Compound 5, (E)-3-(3-chloro-5-hydroxy-4-methoxyphenyl)-2-(3,4,5-trimethoxyphenyl) acrylic acid]: the “RTV (d 22)” value in experiment [5] came out at 5.73 ± 1.25. Moreover, the inhibition in vivo at 400 mg/kg in experiment [5] (Mus musculus, po, read-out: Tumor inhibitory rate %) amounted to 51.2%. The “The ratio of CD8^+ … (%)” value in experiment [1] stood at 0.0833 ± 0.0107%. The “The ratio … in tumor tissues (%)” value in experiment [2] stood at 7.438 ± 0.7610%. In addition, in experiment [4], the Differentially expressed proteins is on record as 304, the Down-regulation is given as 297 and the Up-regulation was found to be 7.

Regarding `COc1cc(/C=C(/C(=O)O)c2cc(OC)c(OC)c(OC)c2)ccc1O` [Compound 7, (E)-3-(4-hydroxy-3-methoxyphenyl)-2-(3,4,5-trimethoxyphenyl)acrylic acid], the “The ratio of CD8^+ … (%)” value in experiment [1] was 0.0774 ± 0.0115%. Moreover, the “The ratio … in tumor tissues (%)” value in experiment [2] was found to be 6.653 ± 0.7791%. In experiment [6], the “RTV (d 18)” value came to 4.46 ± 0.62 and the “Tumor inhibitory rate %” value is reported as 61.28^## %. Further, in experiment [3], the inhibition in vivo at 100 mg/kg was determined as 64% and the “RTV (d 18)” value stood at 4.63 ± 0.75. For the same compound, in experiment [4], the Differentially expressed proteins came out at 289, the Down-regulation amounted to 281 and the Up-regulation is on record as 8.
